Experimental findings from paper PMC10614203, “Synthesis, Structure–Activity Relationships, Radiofluorination, and Biological Evaluation of [^18F]RM365, a Novel Radioligand for Imaging the Human Cannabinoid Receptor Type 2 (CB2R) in the Brain with PET” (Journal of Medicinal Chemistry, 2023) are described below.

The target in this series is T1, hCB2R(D80N) (Homo sapiens, UniProt P34972, D80N).
T1 construct: expressed in transfected cells; host or cells: neurons of the right striatum of male Wistar rats, transduced in vivo with the AAV2/7-CaMKII0.4-intron-hCB2R(D80N) vector
T1 sequence (P34972 whole entry D80N): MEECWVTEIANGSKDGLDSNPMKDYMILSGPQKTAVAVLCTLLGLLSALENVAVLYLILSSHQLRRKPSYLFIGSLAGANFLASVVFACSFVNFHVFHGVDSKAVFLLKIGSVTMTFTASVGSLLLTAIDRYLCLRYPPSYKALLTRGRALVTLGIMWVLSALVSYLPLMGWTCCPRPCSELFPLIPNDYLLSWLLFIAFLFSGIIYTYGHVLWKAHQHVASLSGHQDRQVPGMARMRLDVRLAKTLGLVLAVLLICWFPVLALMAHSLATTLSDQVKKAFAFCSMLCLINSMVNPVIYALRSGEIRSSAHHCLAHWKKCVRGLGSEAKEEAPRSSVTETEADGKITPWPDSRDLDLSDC
The format is in vivo. The following applies: for reduction of the normalized AUC between 20 and 60 min p.i.: GW405833 i.v. 20 min after radioligand. The text has this:
In a proof-of-concept study, the specific binding to the human CB2R and the ability to cross the blood–brain barrier of [^18F]RM365 in vivo was investigated by PET imaging experiments using an established rat model with a local overexpression of hCB2R(D80N) in the right striatum (target region).[32],[66] Exemplary images of the averaged time frames of the PET study, as well as the TACs of the target region and both reference regions on the contralateral site and the cerebellum, are shown in Figure 10. […] However, the TAC peak value was four to five times lower in the reference regions, which was reflected by the seven to eight times lower accumulated activity over time expressed as the area under the curve (AUC) of [^18F]RM365 (Table 3). The high signal-to-background ratio is reflected by a SUVr of 15 ± 5 and 20 ± 5 for the target region-to-contralateral and -cerebellum ratios, respectively, at 60 min p.i. […] Additionally, we investigated the reversibility of the binding toward the human CB2R receptor in vivo in displacement studies by administering the CB2R-specific agonist GW405833 into the tail vein 20 min after the radioligand injection into the hCB2R(D80N)-overexpressing rat model (Figure 10B, Table 3). […] The signal in the contralateral side (p-value = 0.1621, two-way ANOVA) and in the cerebellum (p-value = 0.6177, two-way ANOVA) was not affected by the treatment over time with GW405833 (Figure S6), underlining the eligibility of these reference regions.
In vivo biodistribution studies of [^18F]RM365 were performed in female CD-1 mice (n = 4, 31 ± 3 g) and female Wistar rats (n = 4, 150 ± 11 g). For the uptake studies into the brain, male Wistar rats carrying the stereotactically injected AAV2/7-CaMKII0.4-intron-hCB2R(D80N) (right striatum) and AAV2/7-CaMKII0.4-intron-3flag-eGFP (control/contralateral, left striatum) were used (n = 6; bodyweights were 260 ± 11 g). Data were assessed by dynamic small animal PET (Nanoscan, Mediso, Budapest, Hungary) in 60 min recordings, followed by T1-weighted (GRE, TR/TE = 15.0/2.4 ms, 252/252, FA = 25°) MR imaging with whole-body coils for anatomical correlation and attenuation correction.
The PET scans were performed 3−4 months after the stereotactic injections. Animals were initially anesthetized with 5% isoflurane and placed on a thermostatically heated animal bed, where anesthesia was maintained with 2% isoflurane in 60% oxygen/38% room air. […] Nonparametric (semiquantitative) analysis of achieved time–activity curves (TACs) was performed with Microsoft Excel to determine the time to peak, the TAC peak value, and the area under the curve (AUC) [drawing 1] where c (radioactivity) is expressed as the standardized uptake value normalized to the bodyweight in g (SUV). […]

Where [1] appears, read: male, Wistar, rat, in vivo, 60 min.

Like-named read-outs stand apart in the source and are kept apart here.

`CC1(C)Cc2ccc(C#N)cc2[C@@H]1NC(=O)c1cc2cc([18F])ccc2[nH]1` [[^18F]RM365]: the “reduction of the normalized AUC between 20 and 60 min p.i.” value (cerebellum as reference region) came out at 70%. Under “contralateral site as reference region”, the “reduction of the normalized AUC between 20 and 60 min p.i.” value is reported as 64%. In addition, under setting [1], the SUVr target region-to-cerebellum amounted to 20 ± 5 and the SUVr target region-to-contralateral is 15 ± 5.
